PMC9413514, “Accessing Lipophilicity and Biomimetic Chromatography Profile of Biologically Active Ingredients of Botanicals Used in the Treatment of Inflammatory Bowel Disease” (Pharmaceuticals, 2022)

Assays:
[1] = Miniaturized shake-flask method (n-octanol/PBS pH 7.4) with HPLC analysis; type: physicochemical; conditions: for logD at 1 h: n-octanol/PBS 20 mM pH 7.4, 25 °C, spread is RSD in %, read-out: log D7.4 ± RSD (%) (n = 3); for Δ log D7.4 (lower than curcumin): compared to curcumin
Method: Stock solution of biologically active ingredients of botanicals used in IBD treatment were prepared using dimethylsulfoxide in concentration of 2 mg/mL. Working solutions were prepared daily by dilution of the stock solutions with PBS (20 mM, pH 7.4) pre-saturated with n-octanol. Before the injection into the HPLC system all solutions were sonicated for 15 min at room temperature in Elmasonic XtraTT (Elma Schmidbauer, Singen, Germany) and filtered through 0.2 μm polyethersulfone filters (Obrnuta faza, Pazin, Croatia).
The pre-saturated solutions of n-octanol and PBS (20 mM, pH 7.4) were used for determination of logarithm of distribution coefficient (log D7.4). The n-octanol and aqueous phase (mixture 1:1, v/v) were mutually saturated for 24 h in an orbital shaker-incubator ES-20/60 (Biosan, Riga, Latvia) at 100 oscillations per min at 25.0 ± 0.1 °C. The prepared mixture was left resting for at least 12 h in the thermostat at 25.0 ± 0.1 °C to ensure complete separation of the two phases. Until analysis, separated saturated solutions were kept in refrigerator at 4 °C.
Shake-flask procedure was conducted in amber 2 mL HPLC vials. 300 μL of the working solution was added to 1500 μL of n-octanol pre-saturated with PBS. To prevent material loss due to volatilisation, the two-phase system nearly filled the entire volume of the test vessels. All n-octanol–buffer mixtures were first vortexed for 1 min and then shaken for 1 h (150 oscillations per min) at room temperature (25.0 ± 0.1 °C) to reach equilibrium and phase distribution. Afterward, the samples were centrifuged using a Z 326 K tabletop centrifuge (HERMLE Labortechnik, Wehingen, Germany) for 30 min at 4000× g and 25 °C to ensure that possible emulsions were removed.
After equilibration and phase separation, the aqueous phase of all samples was analysed on an Agilent HPLC 1100 (Agilent Technologies, Waldbronn, Germany) with diode array detection. Analysis was conducted with a Zorbax SB C18 column (length 150 mm, i.d. 4.6 mm, particle size 5 μm) by Agilent Technologies. 10 min chromatographic runs were performed at 25.0 ± 0.1 °C in isocratic mode using a methanol/water mixture (60/40, v/v) with addition of 0.1% of formic acid as mobile phase modifier at a flow rate of 1.0 mL/min. The mobile phase was filtered through a membrane filter, no. 66, diameter 47 mm, pore size 0.45 µm (Supelco, Bellefonte, PA, USA). The vials were placed in the rack on the autosampler at 25 °C. The injection volume was 10 µL, with a needle offset of 0.5 mm. To avoid any carryover of the analyte-containing n-octanol phase, the outside of the syringe was subsequently washed in methanol before injection. The absorbance of the analytes during a chromatographic run was collected in the spectral range 200–400 nm, and the detection wavelength for each analyte was the one providing the maximum peak height.

[2] = C18-HPLC assay (hydrophobicity); type: physicochemical; conditions: for logk0 (HPLC hydrophobicity index, intercept of linear equation): Zorbax SB C18, PBS pH 7.4/methanol, extrapolated to zero organic modifier
Method: The principles of hydrophobicity determination by HPLC are characterized by the logarithm of retention factor (k), defined as logk = log (tR−t0)/t0, where tR is retention time of analyte and t0 is the dead time. […] The percentage of methanol in the mobile phase was optimized so that the analytes had retention time between dead time and a maximum of 20 min keeping the analysis time as short as possible, and the peak shape acceptable (peak asymmetry factor were between 0.8 and 1.2). […] The HPLC hydrophobicity index, logk0, was determined by extrapolation of the organic modifier in the mobile phase to its zero concentration.
(§1) Stock solutions of analytes and calibration standards were prepared by dissolving 10 mg of each solute in 10 mL of methanol and kept at 4 °C. Working solutions were freshly prepared at the beginning of each day by dilution of the stock solutions to 100 μg/mL with methanol for TLC measurements or mobile phase for HPLC measurements. Before use, the samples were sonicated (Elmasonic XtraTT, Elma Schmidbauer) for 10 min at 25 °C and all working solutions were filtered through 0.2 µm polyethersulfone filters (Obrnuta faza). To protect analytes from photodegradation, the amber glass HPLC vials were used.
C18-HPLC assay was carried out at Agilent HPLC 1100 and Zorbax SB C18 chromatographic column (length 250 mm.6 mm, particle size 5 µm) by Agilent Technologies, while IAM-HPLC assay was conducted using IAM P.C.DD2 chromatographic column (length 50 mm, i.d. 3.0 mm, particle size […]) by Regis Technologies (Morton Grove, IL, USA). Retention data were collected at 25.0 ± 0.1 °C using isocratic method working with mobile phases, mixing the respective amounts of PBS (10 mM, pH 7.4) and methanol from 35% to 80% of organic solvent in 5% increment. Each mobile phase was shaken vigorously and filtrated through membrane filter, no. 66, diameter 47 mm, pore size 0.45 µm by Supelco and degassed by sonication 5 min before use. The injection volume was set at 10 µL, and the measurements were carried out at flow rate 1.0 mL/min. Natrium nitrate solution (0.1 mg/mL in mobile phase) was used as the marker of dead-time. The absorbance of the analytes during a chromatographic run was collected in the spectral range of 200–400 nm, and the detection wavelength for each analyte was the one providing the maximum peak height.

[3] = target: T1, human serum albumin (HSA) (Homo sapiens, UniProt P02768); experiment: HSA-HPAC assay (plasma protein binding); type: in vitro ADME; conditions: Chiralpak-HSA, pH 7.4, 25 °C; spread is RSD in %
T1 construct: purchased ChromTech (Cedex, France) Chiralpak-HSA
T1 sequence (P02768 25-609): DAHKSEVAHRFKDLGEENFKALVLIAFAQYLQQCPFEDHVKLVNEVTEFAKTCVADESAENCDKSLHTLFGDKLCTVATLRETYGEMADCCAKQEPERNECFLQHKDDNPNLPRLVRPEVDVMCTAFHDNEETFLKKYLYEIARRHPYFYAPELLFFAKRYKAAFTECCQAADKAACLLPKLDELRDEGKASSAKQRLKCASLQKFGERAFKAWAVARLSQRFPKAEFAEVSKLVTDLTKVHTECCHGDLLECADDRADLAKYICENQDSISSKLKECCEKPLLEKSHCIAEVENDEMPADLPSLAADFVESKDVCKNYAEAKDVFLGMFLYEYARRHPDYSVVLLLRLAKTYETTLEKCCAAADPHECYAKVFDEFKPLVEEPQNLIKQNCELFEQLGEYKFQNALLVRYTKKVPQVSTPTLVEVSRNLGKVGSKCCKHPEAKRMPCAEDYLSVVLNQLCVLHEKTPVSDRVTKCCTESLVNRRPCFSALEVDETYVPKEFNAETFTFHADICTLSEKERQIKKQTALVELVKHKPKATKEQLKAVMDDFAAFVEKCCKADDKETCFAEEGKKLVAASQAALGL
Text: (§2) The gradient retention times obtained by HSA-HPAC and AGP-HPAC assays were standardized using a calibration set of compounds with known percentage of plasma protein binding data and procedure described in our previously published study. […] This verification assured that the protein affinity indices obtained by HPAC assays depict not only unspecific generally lipophilicity-driven interactions, but also highly specific recognition forces responsible of enantioselectivity.
as §1
(§3) The binding of biologically active compounds to the plasma proteins was investigated using affinity chromatographic columns by ChromTech (Cedex, France) containing immobilized human serum albumin (HSA) (Chiralpak-HSA, length 50 mm, i.d. 4.6 mm, particle size 5 µm) and α1-acid glycoprotein (AGP) (Chiralpak-AGP, length 50 mm, i.d. 4.6 mm, particle size 5 µm) and Agilent HPLC 1100 instrument. The 20 mM potassium phosphate buffer with the pH adjusted to 7.4 and iso-propanol were used as mobile phase components A and B. Retention data were collected at 25.0 ± 0.1 °C using gradient program as follows: 0 min/0% B, 6 min/30% B, 15 min/30% B and 20 min/0% B. Injection volume was set at 10 µL and the measurements were carried out at 25.0 ± 0.1 °C with flow rate of 1.5 mL/min. The absorbance of the analytes during a chromatographic run was collected in the spectral range 200–400 nm, and the detection wavelength for each analyte was the one providing the maximum peak height.

[4] = test system: α1-acid glycoprotein (AGP); experiment: AGP-HPAC assay (plasma protein binding); type: in vitro ADME; conditions: Chiralpak-AGP, pH 7.4, 25 °C; spread is RSD in %
Text: as §2, §1, §3

logD at 1 h [1]	logk0 (HPLC hydrophobicity index, intercept of linear equation) [2]	HSA Binding ± RSD (%) (n = 3) [3]	AGP Binding ± RSD (%) (n = 3) [4]	Δ log D7.4 (increase compared to andrographolide) ([1]; compared to andrographolide) [units]	difference in logk0 values versus andrographolide ([2]; compared to andrographolide) [units]	SMILES	Δ log D7.4 (lower than curcumin) [1] [units]
1.32	y = −0.0271 x + 1.9065	80.07 ± 0.74	37.13 ± 1.11	–	–	C=C1CC[C@@H]2[C@](C)(CO)[C@H](O)CC[C@@]2(C)[C@@H]1C/C=C1/C(=O)OC[C@H]1O [Andrographolide, andrographolide]	–
1.51	y = −0.0359 x + 2.8595	87.71 ± 0.41	64.95 ± 0.41	0.19	0.95	C=C1CC[C@@H]2[C@](C)(CO[C@@H]3O[C@H](CO)[C@@H](O)[C@H](O)[C@H]3O)CCC[C@@]2(C)[C@@H]1CCC1=CCOC1=O [Neoandrographolide, neoandrographolide]	–
1.67	y = −0.0394 x + 3.4218	95.48 ± 0.41	71.98 ± 1.33	–	–	O=C(/C=C/C=C/c1ccc2c(c1)OCO2)N1CCCCC1 [Piperine, piperine]	–

SMILES	logD at 1 h [1]	logk0 (HPLC hydrophobicity index, intercept of linear equation) [2]	HSA Binding ± RSD (%) (n = 3) [3]	AGP Binding ± RSD (%) (n = 3) [4]	Δ log D7.4 (increase compared to andrographolide) ([1]; compared to andrographolide) [units]	difference in logk0 values versus andrographolide ([2]; compared to andrographolide) [units]	Δ log D7.4 (lower than curcumin) [1] [units]
O=C(C=Cc1ccc(O)cc1)CC(=O)C=Cc1ccc(O)cc1 [Bisdemetoxycurcumin, bisdemetoxycurcumin]	1.72	y = −0.0447 x + 3.4174	98.37 ± 0.10	83.14 ± 1.15	–	–	0.22
COc1cc(/C=C/C(=O)CC(=O)/C=C/c2ccc(O)cc2)ccc1O [Demetoxycurcumin, demetoxycurcumin]	1.52	y = −0.0448 x + 3.4349	97.97 ± 0.35	82.92 ± 1.15	–	–	0.42
